Measurements reported in US9983218B2, “Indole and indoline derivatives and methods of use thereof” (AbbVie Inc., priority 2008, dated 2018).

Test system: SK-N-SH human neuroblastoma cells
Assay: Serum deprivation/JC-1 mitochondrial membrane potential (MMP) assay
Type: cell-based
Settings: Homo sapiens; for Emax: SK-N-SH, percent maximal intensity in JC-1 ratio normalized to 10 μM dimebolin, read-out: JC-1 max %; for EC50: SK-N-SH cells, serum deprivation ~18 hours, JC-1 ratio normalized to peak value for 10 μM dimebolin, single curve fit to mean data of n=2-3, read-out: EC50
How it was run: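 Cells were serum-deprived ~18 h in MEM with or without compound (DMSO ≤1%), then stained with JC-1 for 35 min at 37° C. The red/green fluorescence ratio (560/595 vs 485/535 nm) was normalized to the peak response of 10 μM dimebolin. EC50 came from one curve fit to mean data (n=2-3, duplicates).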

Cc1ccc2c(c1)[C@@H]1[C@H]3CC[C@@H](C[C@@H]1N2CCc1ccc(C)nc1)N3C [Example 113, (5aS,7S,10R,10aR)-2,11-dimethyl-5-[2-(6-methylpyridin-3-yl)ethyl]-5,5a,6,7,8,9,10,10a-octahydro-7,10-epiminocyclohepta[b]indole]
Emax: 353% | EC50: 2.99 µM

Cc1ccc(/C=C\n2c3c(c4cc(C)ccc42)[C@@H]2CC[C@H](C3)N2C)cc1 (single isomer, unassigned) [Example 61]
Emax: 211% | EC50: 4.37 µM

COCCN(C)c1ccc(Cn2c3c(c4cc(F)ccc42)CN2CCC3CC2)cn1 [Example 245, 5-[(9-fluoro-1,3,4,5-tetrahydro-6H-2,5-ethanoazepino[4,3-b]indol-6-yl)methyl]-N-(2-methoxyethyl)-N-methylpyridin-2-amine]
Emax: 189% | EC50: 10 µM

Cc1ccc2c(c1)c1c(n2CCc2ccc(C)nn2)C[C@H]2CC[C@@H]1N2C [Example 33, (7R,10S)-2,11-dimethyl-5-[2-(6-methylpyridazin-3-yl)ethyl]-5,6,7,8,9,10-hexahydro-7,10-epiminocyclohepta[b]indole]
Emax: 97% | EC50: 5.81 µM

Cc1ccc2c(c1)c1c(n2CCc2ccc(C)nc2)CC2CCC1N2S(=O)(=O)c1ccc(C(F)(F)F)cc1 (stereo not drawn) [Example 18, 2-methyl-5-[2-(6-methylpyridin-3-yl)ethyl]-11-{[4-(trifluoromethyl)phenyl]sulfonyl}-5,6,7,8,9,10-hexahydro-7,10-epiminocyclohepta[b]indole]
Emax: 307% | EC50: 3.19 µM

Fc1ccc2c(c1)c1c(n2-c2cccc(-n3cccn3)n2)C2CCN(CC2)C1 [Example 225, 9-fluoro-6-[6-(1H-pyrazol-1-yl)pyridin-2-yl]-3,4,5,6-tetrahydro-1H-2,5-ethanoazepino[4,3-b]indole]
Emax: 209% | EC50: 2.74 µM

Cc1ccc2c(c1)c1c(n2CCOc2ccc(F)cc2)CC2CCC1N2C (stereo not drawn) [Example 67, 5-[2-(4-fluorophenoxy)ethyl]-2,11-dimethyl-5,6,7,8,9,10-hexahydro-7,10-epiminocyclohepta[b]indole]
Emax: 132% | EC50: 6.49 µM

c1cncc(Cn2c3c(c4ccccc42)CN2CCC3CC2)c1 [Example 188, 6-(pyridin-3-ylmethyl)-3,4,5,6-tetrahydro-1H-2,5-ethanoazepino[4,3-b]indole]
Emax: 96% | EC50: 6.52 µM

Cc1ccc2c(c1)c1c(n2/C=C\c2ccc(C)nc2)C[C@@H]2CC[C@H]1N2C [Example 24, (7S,10R)-2,11-dimethyl-5-[(Z)-2-(6-methylpyridin-3-yl)vinyl]-5,6,7,8,9,10-hexahydro-7,10-epiminocyclohepta[b]indole]
Emax: 221% | EC50: 2.26 µM

Fc1ccc(CCn2c3c(c4cc(F)ccc42)CN2CCC3CC2)cc1 [Example 163, 9-fluoro-6-[2-(4-fluorophenyl)ethyl]-3,4,5,6-tetrahydro-1H-2,5-ethanoazepino[4,3-b]indole]
Emax: 140% | EC50: 4.03 µM

CC(C)N(C)c1ccc(Cn2c3c(c4cc(F)ccc42)CN2CCC3CC2)cn1 [Example 242, 5-[(9-fluoro-1,3,4,5-tetrahydro-6H-2,5-ethanoazepino[4,3-b]indol-6-yl)methyl]-N-isopropyl-N-methylpyridin-2-amine]
Emax: 169% | EC50: 8.12 µM

Cc1ccc2c(c1)c1c(n2S(=O)(=O)c2ccc(Cl)cc2)C2CCN1CC2 [Example 215, 5-[(4-chlorophenyl)sulfonyl]-8-methyl-2,3,4,5-tetrahydro-1,4-ethanopyrido[3,2-b]indole]
Emax: 196% | EC50: 3.34 µM

CN1C2CCC1c1c(n(CCc3ccc(Cl)cc3)c3ccc(-c4ccc(Cl)cc4)cc13)C2 (stereo not drawn) [Example 107, 2-(4-chlorophenyl)-5-[2-(4-chlorophenyl)ethyl]-11-methyl-5,6,7,8,9,10-hexahydro-7,10-epiminocyclohepta[b]indole]
Emax: 153% | EC50: 4.08 µM

FC12CC3CC(CN(C3)C1)c1c2c2ccccc2n1Cc1ccc(Cl)nc1 (stereo not drawn) [Example 190, 8-[(6-chloropyridin-3-yl)methyl]-1-fluoro-1,4,5,6,7,8-hexahydro-2H-1,5:3,7-dimethanoazonino[5,4-b]indole]
Emax: 175% | EC50: 5.06 µM

Fc1ccc2c(c1)c1c(n2Cc2ccc(Cl)nc2)C2CCN(CC2)C1 [Example 164, 6-[(6-chloropyridin-3-yl)methyl]-9-fluoro-3,4,5,6-tetrahydro-1H-2,5-ethanoazepino[4,3-b]indole]
Emax: 197% | EC50: 4.95 µM

O=c1ccnc2ccc(-n3c4c(c5ccccc53)[C@H]3CC[C@@H](C4)N3)cn12 (single isomer, unassigned) [Example 283]
Emax: 170% | EC50: 6.02 µM

Cc1ccc(CCn2c3c(c4cc(C(C)(C)C)ccc42)C2CCC(C3)N2C)cn1 (stereo not drawn) [Example 104, 2-tert-butyl-11-methyl-5-[2-(6-methylpyridin-3-yl)ethyl]-5,6,7,8,9,10-hexahydro-7,10-epiminocyclohepta[b]indole]
Emax: 178% | EC50: 4.16 µM

O=c1cccnn1-c1ccc(Cn2c3c(c4cc(F)ccc42)CN2CCC3CC2)cc1 [Example 255, 2-{4-[(9-fluoro-1,3,4,5-tetrahydro-6H-2,5-ethanoazepino[4,3-b]indol-6-yl)methyl]phenyl}pyridazin-3(2H)-one]
Emax: 171% | EC50: 5.72 µM

Cc1ccc(/C=C\n2c3c(c4cc(S(C)(=O)=O)ccc42)CN2CCC3CC2)cn1 [Example 181, 6-[(Z)-2-(6-methylpyridin-3-yl)vinyl]-9-(methylsulfonyl)-3,4,5,6-tetrahydro-1H-2,5-ethanoazepino[4,3-b]indole]
Emax: 103% | EC50: 7.89 µM

CN1C2CCC1c1c(n(CCc3ccc(Cl)cc3)c3ccc(Br)cc13)C2 (stereo not drawn) [Example 87, 2-bromo-5-[2-(4-chlorophenyl)ethyl]-11-methyl-5,6,7,8,9,10-hexahydro-7,10-epiminocyclohepta[b]indole]
Emax: 139% | EC50: 3.33 µM

CCOC(=O)Cn1c2c(c3cc(C)ccc31)CN1CCC2CC1 [Example 154, ethyl (9-methyl-1,3,4,5-tetrahydro-6H-2,5-ethanoazepino[4,3-b]indol-6-yl)acetate]
Emax: 31% | EC50: 30 µM

CC1CCCN1c1ccc(Cn2c3c(c4cc(F)ccc42)CN2CCC3CC2)cn1 (stereo not drawn) [Example 240, 9-fluoro-6-{[6-(2-methylpyrrolidin-1-yl)pyridin-3-yl]methyl}-3,4,5,6-tetrahydro-1H-2,5-ethanoazepino[4,3-b]indole]
Emax: 170% | EC50: 3.33 µM

c1ccc(Cn2c3c(c4ccccc42)CN2CCC3CC2)nc1 [Example 187, 6-[(pyridin-2-yl)methyl]-3,4,5,6-tetrahydro-1H-2,5-ethanoazepino[4,3-b]indole]
Emax: 110% | EC50: 9.37 µM

Cc1ccc2c(c1)c1c(n2/C=C\c2ccc(C)nc2)C2CCN(CC2)C1 [Example 147, 9-methyl-6-[(Z)-2-(6-methylpyridin-3-yl)vinyl]-3,4,5,6-tetrahydro-1H-2,5-ethanoazepino[4,3-b]indole]
Emax: 266% | EC50: 2.53 µM

Cc1ccc2c(c1)c1c(n2-c2ccc(-c3ccc(I)cc3)nn2)CC2CCC1N2C (stereo not drawn) [Example 3, 5-[6-(4-iodophenyl)pyridazin-3-yl]-2,11-dimethyl-5,6,7,8,9,10-hexahydro-7,10-epiminocyclohepta[b]indole]
Emax: 191% | EC50: 5.11 µM

Cc1ccc(S(=O)(=O)n2c3c(c4cc(Br)ccc42)C2CCC(C3)N2C)cc1 (stereo not drawn) [Example 90, 2-bromo-11-methyl-5-[(4-methylphenyl)sulfonyl]-5,6,7,8,9,10-hexahydro-7,10-epiminocyclohepta[b]indole]
Emax: 176% | EC50: 3.43 µM

Fc1ccc2c(c1)c1c(n2-c2ccc3ccncc3c2)C2CCN(CC2)C1 [Example 223, 9-fluoro-6-isoquinolin-7-yl-3,4,5,6-tetrahydro-1H-2,5-ethanoazepino[4,3-b]indole]
Emax: 287% | EC50: 3.84 µM

Fc1ccc2c(c1)c1c(n2Cc2cccnc2)C2CCN(CC2)C1 [Example 185, 9-fluoro-6-(pyridin-3-ylmethyl)-3,4,5,6-tetrahydro-1H-2,5-ethanoazepino[4,3-b]indole]
Emax: 184% | EC50: 8.58 µM

Fc1ccc2c(c1)c1c(n2-c2ccc3ccccc3n2)C2CCN(CC2)C1 [Example 224, 9-fluoro-6-quinolin-2-yl-3,4,5,6-tetrahydro-1H-2,5-ethanoazepino[4,3-b]indole]
Emax: 215% | EC50: 3.17 µM

Cc1ccc(CCn2c3c(c4ccccc42)C2CCC(C3)N2C)cn1 (stereo not drawn) [Example 78, 11-methyl-5-[2-(6-methylpyridin-3-yl)ethyl]-5,6,7,8,9,10-hexahydro-7,10-epiminocyclohepta[b]indole]
Emax: 211% | EC50: 9.69 µM

Cc1ccc2c(c1)[C@H]1[C@H]3CC4C[C@H](CN(C4)C3)[C@H]1N2CCc1ccc(C)nc1 (relative stereo) [Example 194, (1R*,7R*,7aS*,12bR*)-11-methyl-8-[2-(6-methylpyridin-3-yl)ethyl]-1,4,5,6,7,7a,8,12b-octahydro-2H-1,5:3,7-dimethanoazonino[5,4-b]indole]
Emax: 321% | EC50: 2.18 µM

Cc1ccc2c(c1)[C@@H]1[C@@H](C3CCN1CC3)N2CCc1ccc(C)nc1 (relative stereo) [Example 213, (4aR*,9bR*)-8-methyl-5-[2-(6-methylpyridin-3-yl)ethyl]-2,3,4,4a,5,9b-hexahydro-1,4-ethanopyrido[3,2-b]indole]
Emax: 177% | EC50: 5.43 µM

c1ccc2c(c1)c1c(n2-c2cc(-n3ccnc3)ccn2)C2CCN(CC2)C1 [Example 272, 6-[4-(1H-imidazol-1-yl)pyridin-2-yl]-3,4,5,6-tetrahydro-1H-2,5-ethanoazepino[4,3-b]indole]
Emax: 149% | EC50: 3.99 µM
